Data taken from ChEMBL document CHEMBL3124812, “Benzamidobenzoic acids as potent PqsD inhibitors for the treatment of Pseudomonas aeruginosa infections” (Eur J Med Chem, 2014).
The source made the active and inactive calls. The calls are words filed in the database; no cut-off is given here.

system: Escherichia coli; experiment: Inhibition of Escherichia coli RNAP assessed as incorporation of [5,6-3H]UTP at 50 uM preincubated for 10 mins followed by DNA template and ATP, CTP, GTP, UTP, [5,6-3H]UTP addition measured after 10 mins by scintillation counting analysis; details: not given

inhibition | SMILES
23% | CCN(CC)S(=O)(=O)c1cccc(C(=O)Nc2ccc(-c3ccc(C(=O)O)cc3)cc2C(=O)O)c1
33% | O=C(Nc1sc(-c2ccccc2)cc1C(=O)O)c1ccc(-c2ccccc2)cc1
inactive | CCN(CC)S(=O)(=O)c1cc(C(=O)Nc2ccc(Br)cc2C(=O)O)ccc1Br
inactive | CCN(CC)S(=O)(=O)c1cccc(C(=O)Nc2ccc(C(F)(F)F)cc2C(=O)O)c1
inactive | CCN(CC)S(=O)(=O)c1cccc(C(=O)Nc2ccc(Br)cc2C(=O)O)c1

system: not listed separately; experiment: Selectivity index, ratio of IC50 for Escherichia coli RNAP to IC50 for Pseudomonas aeruginosa PqsD; details: not given

Ratio IC50 | SMILES
50 | O=C(Nc1cccc(O)c1C(=O)O)c1ccc(-c2ccccc2)cc1

system: not listed separately; experiment: Inhibition of Escherichia coli RNAP assessed as incorporation of [5,6-3H]UTP preincubated for 10 mins followed by DNA template and ATP, CTP, GTP, UTP, [5,6-3H]UTP addition measured after 10 mins by scintillation counting analysis; details: not given

IC50 | SMILES
Not Active | NC(=O)c1cc(Br)ccc1NC(=O)c1ccc(-c2ccccc2)cc1
Not Active | COC(=O)c1cc(Br)ccc1NC(=O)c1ccc(-c2ccccc2)cc1
Not Active | N#Cc1cc(Br)ccc1NC(=O)c1ccc(-c2ccccc2)cc1

same assay, conditions: read-out: IC50

IC50 [µM] | SMILES
10 | O=C(Nc1cc(-c2ccccc2)sc1C(=O)O)c1ccc(-c2ccccc2)cc1
13 | O=C(Nc1cc(-c2ccc(Cl)cc2)sc1C(=O)O)c1ccc(-c2ccccc2)cc1
78 | CCN(CC)S(=O)(=O)c1cccc(C(=O)Nc2ccc(-c3ccc(C(N)=O)cc3)cc2C(=O)O)c1
74 | O=C(Nc1cccc(O)c1C(=O)O)c1ccc(-c2ccccc2)cc1
35 | O=C(O)c1cc(Br)ccc1NS(=O)(=O)c1ccc(-c2ccccc2)cc1
110 | O=C(O)c1cc(Br)cc(NC(=O)c2ccc(-c3ccccc3)cc2)c1
9 | COc1ccc(-c2cc(NC(=O)c3ccc(-c4ccccc4)cc3)c(C(=O)O)s2)cc1
161 | O=C(Nc1sccc1C(=O)O)c1ccc(-c2ccccc2)cc1

system: not listed separately; experiment: Inhibition of Pseudomonas aeruginosa His-6-tagged PqsD expressed in Escherichia coli BL21 (lambdaDE3) using anthraniloyl-CoA/beta-ketodecanoic acid as substrate by LC-MS/MS analysis; details: not given

IC50 | SMILES
Not Active | COc1cccc(NC(=O)c2ccc(-c3ccccc3)cc2)c1C(=O)O
Not Active | NC(=O)c1cc(Br)ccc1NC(=O)c1ccc(-c2ccccc2)cc1
Not Active | O=C(O)c1ccc(Br)c(NC(=O)c2ccc(-c3ccccc3)cc2)c1
Not Active | O=C(Nc1ccccc1C(=O)O)c1ccccc1
Not Active | COC(=O)c1cc(Br)ccc1NC(=O)c1ccc(-c2ccccc2)cc1
Not Active | N#Cc1cc(Br)ccc1NC(=O)c1ccc(-c2ccccc2)cc1

same assay, conditions: read-out: IC50

SMILES | IC50 [µM]
O=C(Nc1ccsc1C(=O)O)c1ccc(-c2ccccc2)cc1 | 5.2
O=C(Nc1cscc1C(=O)O)c1ccc(-c2ccccc2)cc1 | 19.5
O=C(Nc1ccc(Br)cc1C(=O)O)c1cccc(Cc2ccccc2)c1 | 5
O=C(Nc1ccc(C(F)(F)F)cc1C(=O)O)c1ccc(-c2ccccc2)cc1 | 3.4
O=C(Nc1cccc(O)c1C(=O)O)c1ccc(-c2ccccc2)cc1 | 1.3
O=C(O)c1cc(Br)ccc1NS(=O)(=O)c1ccc(-c2ccccc2)cc1 | 1.3
O=C(O)c1cc(Br)cc(NC(=O)c2ccc(-c3ccccc3)cc2)c1 | 32.6
O=C(Nc1sccc1C(=O)O)c1ccc(-c2ccccc2)cc1 | 15.7
O=C(Nc1c(Cl)cccc1C(=O)O)c1ccc(-c2ccccc2)cc1 | 6.2
N#Cc1ccc(NC(=O)c2ccc(-c3ccccc3)cc2)c(C(=O)O)c1 | 8.6

Further lines, results first:

IC50 [µM] | SMILES
9.8 | O=C(Nc1cc(-c2ccccc2)sc1C(=O)O)c1ccc(-c2ccccc2)cc1
4.2 | O=C(Nc1ccc(O)cc1C(=O)O)c1ccc(-c2ccccc2)cc1
4.4 | O=C(Nc1ccc(Br)cc1C(=O)O)c1cccc(Oc2ccccc2)c1
3.8 | O=C(Nc1ccc(Cl)cc1C(=O)O)c1ccc(-c2ccccc2)cc1
3.3 | O=C(Nc1cc([N+](=O)[O-])ccc1C(=O)O)c1ccc(-c2ccccc2)cc1
4.9 | O=C(Nc1cc(C(F)(F)F)ccc1C(=O)O)c1ccc(-c2ccccc2)cc1
5.1 | O=C(Nc1cc(Br)ccc1C(=O)O)c1cccc(Oc2ccccc2)c1
4 | O=C(Nc1ccc(OC(F)(F)F)cc1C(=O)O)c1ccc(-c2ccccc2)cc1
3.2 | O=C(Nc1ccc(Br)cc1C(=O)O)c1ccc(-c2ccccc2)cc1
8.7 | O=C(Nc1cc(Cl)ccc1C(=O)O)c1ccc(-c2ccccc2)cc1
15.2 | O=C(Nc1ccc(F)cc1C(=O)O)c1ccc(-c2ccccc2)cc1
5.7 | O=C(Nc1cc(Cl)ccc1C(=O)O)c1cccc(Oc2ccccc2)c1
6.6 | O=C(Nc1ccccc1C(=O)O)c1ccc(-c2ccccc2)c(Oc2ccccc2)c1
18.2 | O=C(Nc1cc(F)ccc1C(=O)O)c1ccc(-c2ccccc2)cc1
5 | O=C(Nc1cc(Cl)ccc1C(=O)O)c1ccc(-c2ccccc2)c(Oc2ccccc2)c1
6 | O=C(Nc1cc(F)ccc1C(=O)O)c1ccc(-c2ccccc2)c(Oc2ccccc2)c1
7.7 | O=C(Nc1ccc(-c2ccccc2)cc1C(=O)O)c1cccc(Oc2ccccc2)c1
3.2 | O=C(Nc1cc(Br)ccc1C(=O)O)c1ccc(-c2ccccc2)cc1
6.6 | O=C(Nc1cc(-c2ccccc2)ccc1C(=O)O)c1cccc(Oc2ccccc2)c1

system: Pseudomonas aeruginosa; experiment: Inhibition of Pseudomonas aeruginosa His-6-tagged PqsD expressed in Escherichia coli BL21 (lambdaDE3) using anthraniloyl-CoA/beta-ketodecanoic acid at 50 uM as substrate by LC-MS/MS analysis; details: not given

SMILES | inhibition [%]
COc1cc(NC(=O)c2cccc(Oc3ccccc3)c2)c(C(=O)O)cc1OC | 27
O=C(Nc1cc(-c2ccc(Cl)cc2)sc1C(=O)O)c1ccc(-c2ccccc2)cc1 | 35
O=C(Nc1cccc(Cl)c1C(=O)O)c1ccc(-c2ccccc2)cc1 | 20
COc1cc(NC(=O)c2ccc(-c3ccccc3)cc2)c(C(=O)O)cc1OC | 27
COc1ccc(-c2cc(NC(=O)c3ccc(-c4ccccc4)cc3)c(C(=O)O)s2)cc1 | 45

More lines, now with the values ahead:

inhibition [%] | SMILES
57 | O=C(Nc1ccc(F)cc1C(=O)O)c1cccc(Oc2ccccc2)c1
37 | O=C(Nc1ccccc1C(=O)O)c1cccc(Oc2ccccc2)c1
55 | O=C(Nc1ccccc1C(=O)O)c1ccc(-c2ccccc2)cc1
28 | O=C(Nc1sc(-c2ccccc2)cc1C(=O)O)c1ccc(-c2ccccc2)cc1
21 | O=C(Nc1cccc(F)c1C(=O)O)c1ccc(-c2ccccc2)cc1
42 | Cc1ccc(NC(=O)c2ccc(-c3ccccc3)cc2)c(C(=O)O)c1
46 | COc1ccc(NC(=O)c2ccc(-c3ccccc3)cc2)c(C(=O)O)c1

system: Escherichia coli; experiment: Inhibition of Escherichia coli RNAP assessed as incorporation of [5,6-3H]UTP at 100 uM preincubated for 10 mins followed by DNA template and ATP, CTP, GTP, UTP, [5,6-3H]UTP addition measured after 10 mins by scintillation counting analysis; details: not given

inhibition | SMILES
inactive | CCN(CC)S(=O)(=O)c1cccc(C(=O)Nc2cc(Cl)ccc2C(=O)O)c1
31% | O=C(O)c1cccc(NC(=O)c2ccc(-c3ccccc3)cc2)c1
inactive | CCN(CC)S(=O)(=O)c1cccc(C(=O)Nc2ccc(F)cc2C(=O)O)c1
inactive | CCN(CC)S(=O)(=O)c1cc(C(=O)Nc2ccc(F)cc2C(=O)O)ccc1Br
30% | CCN(CC)S(=O)(=O)c1cccc(C(=O)Nc2ccc([N+](=O)[O-])cc2C(=O)O)c1
inactive | CCN(CC)S(=O)(=O)c1cccc(C(=O)Nc2ccc(-c3ccccc3)cc2C(=O)O)c1

system: Escherichia coli; experiment: Inhibition of Escherichia coli RNAP assessed as incorporation of [5,6-3H]UTP at 200 uM preincubated for 10 mins followed by DNA template and ATP, CTP, GTP, UTP, [5,6-3H]UTP addition measured after 10 mins by scintillation counting analysis; details: not given

inhibition | SMILES
inactive | O=C(Nc1ccccc1C(=O)O)c1cccc(S(=O)(=O)N2CCOCC2)c1
29% | CCN(Cc1ccccc1)S(=O)(=O)c1cccc(C(=O)Nc2ccccc2C(=O)O)c1
28% | O=C(Nc1ccsc1C(=O)O)c1ccc(-c2ccccc2)cc1
inactive | CCN(CC)S(=O)(=O)c1ccc(C(=O)Nc2ccccc2C(=O)O)cc1
33% | O=C(Nc1cscc1C(=O)O)c1ccc(-c2ccccc2)cc1
inactive | NS(=O)(=O)c1cccc(C(=O)Nc2ccccc2C(=O)O)c1
inactive | CCN(CC)C(=O)c1cccc(C(=O)Nc2ccc(Br)cc2C(=O)O)c1
inactive | CCN(CC)S(=O)(=O)c1cc(C(=O)Nc2ccccc2C(=O)O)ccc1C
inactive | O=C(Nc1ccccc1C(=O)O)c1cccc(S(=O)(=O)N2CCCCC2)c1
inactive | CCc1ccc(C(=O)Nc2ccccc2C(=O)O)cc1S(=O)(=O)N(CC)CC
inactive | CCN(CC)C(=O)c1cccc(C(=O)Nc2ccccc2C(=O)O)c1
inactive | CCN(CC)S(=O)(=O)c1cccc(C(=O)Nc2cc(F)ccc2C(=O)O)c1
inactive | O=C(Nc1ccccc1C(=O)O)c1cccc(S(=O)(=O)N2CCCCCC2)c1
45% | CCN(CC)S(=O)(=O)c1cccc(C(=O)Nc2ccc(-c3cccc(C(N)=O)c3)cc2C(=O)O)c1
inactive | CCN(CC)S(=O)(=O)c1cccc(C(=O)Nc2ccc(C)cc2C(=O)O)c1
inactive | CCN(CC)S(=O)(=O)c1cc(C(=O)Nc2ccccc2C(=O)O)ccc1Br
inactive | O=C(Nc1ccccc1C(=O)O)c1cccc(S(=O)(=O)N2CCCC2)c1
inactive | CCN(CC)S(=O)(=O)c1cccc(C(=O)Nc2cccc(Cl)c2C(=O)O)c1
inactive | CCN(CC)S(=O)(=O)c1cccc(C(=O)Nc2cccc(F)c2C(=O)O)c1
inactive | CCN(CC)S(=O)(=O)c1cccc(C(=O)Nc2ccc(C#N)cc2C(=O)O)c1
inactive | CCN(CC)S(=O)(=O)c1cccc(C(=O)Nc2cccc(OC)c2C(=O)O)c1
inactive | CCCN(CCC)S(=O)(=O)c1cccc(C(=O)Nc2ccccc2C(=O)O)c1
inactive | CCN(CC)S(=O)(=O)c1cccc(C(=O)Nc2ccccc2C(=O)O)c1
inactive | CCN(CC)S(=O)(=O)c1cccc(C(=O)Nc2cc([N+](=O)[O-])ccc2C(=O)O)c1
25% | O=C(O)c1ccc(Br)c(NC(=O)c2ccc(-c3ccccc3)cc2)c1
28% | CCN(CC)S(=O)(=O)c1ccc(C(=O)Nc2ccc(Br)cc2C(=O)O)cc1
24% | CCN(CC)S(=O)(=O)c1cccc(C(=O)Nc2ccc(-c3cccc(C(=O)O)c3)cc2C(=O)O)c1
inactive | CN(C)S(=O)(=O)c1cccc(C(=O)Nc2ccccc2C(=O)O)c1
inactive | CCN(CC)S(=O)(=O)c1cccc(C(=O)Nc2cccc(O)c2C(=O)O)c1

system: Pseudomonas aeruginosa; experiment: Inhibition of Pseudomonas aeruginosa His-6-tagged PqsD expressed in Escherichia coli BL21 (lambdaDE3) using anthraniloyl-CoA/beta-ketodecanoic acid at 25 uM as substrate by LC-MS/MS analysis; details: not given

inhibition [%] | SMILES
43 | COc1ccc(C(=O)O)c(NC(=O)c2ccc(-c3ccccc3)cc2)c1
25 | O=C(O)c1cccc(NC(=O)c2ccc(-c3ccccc3)cc2)c1
